The values below come from publication PMC6219668 (Oncotarget, 2018).

Molecules are shown by their SMILES. Like-named read-outs stand apart in the source and are kept apart here. Some results are limits rather than exact numbers.

As usually defined, the IC50 is the concentration that gives 50% inhibition.

In one series the test system is HCC-4006. Description: cells. The settings on record: Homo sapiens, HCC4006; HCC-4006, 72 h. In kind it is cell-based.
A further series deals with TE-11. Description: cells. The settings on record: Homo sapiens, TE-11, 72 h. Format: cell-based.
Series [1] deals with SK-MEL-2. Description: cells. The settings on record: Homo sapiens, SK-MEL-2, 72 h. Format: cell-based.
In a further series the test system is NCI-H1975. Description: cells. In kind it is cell-based. The settings on record: Homo sapiens, NCI-H1975, 72 h.
The next series has as its system NCI-H3122. Description: cells. Format: cell-based. The settings on record: Homo sapiens, NCI-H3122, 72 h.
In the next series the test system is HMEX1906. Format: in vivo. The settings on record: mouse, in vivo, 250 mg/kg.
A further series deals with TE-8. Description: cells. In kind it is cell-based. The settings on record: Homo sapiens, TE-8, 72 h.
Series [2] concerns SK-MEL-2. Description: cells. In kind it is cell-based. The settings on record: Homo sapiens, SK-MEL-2, 72 h. The source holds these as a separate data set.
A further series has as its system KYSE150. Description: cells. In kind it is cell-based. The settings on record: Homo sapiens, KYSE-150; KYSE150, 72 h.
The next series has as its system NCI-H460. Description: cells. The settings on record: Homo sapiens, NCI-H460, 72 h. In kind it is cell-based.
The test system of a further series is MEL-JUSO. Format: in vivo. The settings on record: Melanoma.
Series [3] relates to MCF-7. Description: cells. Format: cell-based. The settings on record: Homo sapiens, MCF7; MCF-7, 72 h.
The test system of another series is SNU-387. Description: cells. The settings on record: Homo sapiens, SNU-387, 72 h. Format: cell-based.
For another series, the system named is LnCAP. Description: cells. The settings on record: Homo sapiens, 72 h. Format: cell-based.
Another series deals with HBCx-6. Format: in vivo. The settings on record: HBCx-6, Breast, TNBC, Rb present; 125 mg/kg bid × 21.
Another series can be described thus: Pharmacokinetics in mice. In kind it is in vivo. The settings on record: 75 mg/kg once daily, data not shown.
The test system of a further series is NB1. Description: cells. The settings on record: Homo sapiens, NB1, 72 h. Format: cell-based.
The next series deals with MGH049. Description: cells. In kind it is cell-based. The settings on record: MGH049, 72 h.
A further series deals with PC-14. Description: cells. Format: cell-based. The settings on record: Homo sapiens, PC-14, 72 h.
The next series deals with HBRX1286. In kind it is in vivo. The settings on record: HBRX1286, Breast, TNBC, Rb absent; 250 mg/kg qd.
Another series deals with TE-10. Description: cells. The settings on record: Homo sapiens, TE-10, 72 h. In kind it is cell-based.
The test system of series [4] is NCI-H3255. Description: cells. Format: cell-based. The settings on record: Homo sapiens, NCI-H3255, 72 h.
Series [5] relates to JeKo-1 mantle cell lymphoma cells. Also noted: method as in Brain C et al, manuscript in preparation. The settings on record: RB1-proficient; ref Brain C et al, manuscript in preparation; cited from earlier work.
Another series concerns BT-483. Description: cells. Format: cell-based. The settings on record: Homo sapiens, BT-483, 72 h.
For series [6] the following is noted: humans, 600 mg once daily; data not shown; cited from earlier work.
For a further series, the system named is VCAP. Description: cells. In kind it is cell-based. The settings on record: Homo sapiens, 72 h.
The next series concerns NCI-H441. Description: cells. In kind it is cell-based. The settings on record: Homo sapiens, NCI-H441, 72 h.
The subject of a further series is NCI-H2030. Description: cells. In kind it is cell-based. The settings on record: Homo sapiens, NCI-H2030, 72 h.
Series [7] concerns NCI-H3255. Description: cells. In kind it is cell-based. The settings on record: Homo sapiens, NCI-H3255, 72 h. This is another data set of the same source.
For a further series, the system named is A549. Description: cells. In kind it is cell-based. The settings on record: Homo sapiens, A549, 72 h.
For the next series, the system named is HBCx-1. Format: in vivo. The settings on record: HBCx-1, Breast, HER2High, Rb absent; 125 mg/kg bid × 21.
Another series relates to SK-MEL-28. Description: cells. In kind it is cell-based. The settings on record: Homo sapiens, SK-MEL-28, 72 h.
Another series relates to HPAX1633. In kind it is in vivo. The settings on record: HPAX1633, Pancreatic, Rb present; 250 mg/kg qd.
In another series the test system is CDK2/cyclin A. The settings on record: cited from earlier work.
A further series concerns HBCx-14. Format: in vivo. The settings on record: HBCx-14, Breast, TNBC, Rb absent; 125 mg/kg bid × 21.
The next series concerns SK-MEL-5. Description: cells. Format: cell-based. The settings on record: Homo sapiens, SK-MEL-5, 72 h.
For a further series, the system named is CHP-212. Description: cells. In kind it is cell-based. The settings on record: Homo sapiens, CHP-212, 72 h.
The subject of another series is MOLM-13. Description: cells. Format: cell-based. The settings on record: Homo sapiens; MOLM-13, AML, dominant CDK6; read-out: IC50, mean ± SD.
Another series deals with REH. Description: cells. Format: cell-based. The settings on record: Homo sapiens, ALL, dominant CDK6, read-out: IC50, mean ± SD.
Another series deals with CAMA-1. Description: cells. Format: cell-based. The settings on record: Homo sapiens; CAMA-1, ER+ BC, dominant CDK4; read-out: IC50, mean ± SD.
The subject of series [8] is MCF-7. Description: cells. Format: cell-based. The settings on record: Homo sapiens, MCF7; MCF-7, ER+ BC, dominant CDK4; read-out: IC50, mean ± SD.

Method for HMEX1906: Animals were housed in a temperature-
In all studies, tumor volume was calculated
For using the following formula: (length × width2)/2. Percent
Data are presented as the percent

For `CN(C)C(=O)c1cc2cnc(Nc3ccc(N4CCNCC4)cn3)nc2n1C1CCCC1` [Ribociclib, 7-cyclopentyl-2-(5-piperazin-1-yl-pyridin-2-ylamino)-7H-pyrrolo[2,3-d]pyrimidine-6-carboxylic acid dimethylamide], the IC50 was > 10 µM with HCC-4006; > 10 µM with TE-11; > 10 µM in the series with SK-MEL-2 [1]; > 10 µM in the series on NCI-H1975; 2 µM with NCI-H3122; 2.44 µM in the series on TE-8. For the same compound, the IC50 was 4.81 µM in the series on SK-MEL-2 [2]; 0.55 µM in the series on KYSE150; > 10 µM with NCI-H460; > 10 µM in the series on MCF-7 [3]; 2.49 µM in the series with SNU-387; 0.18 µM in the series with LnCAP. The IC50 is 1.6 µM with NB1; > 10 µM in the series with MGH049; 6.98 µM with PC-14; > 10 µM in the series with TE-10; > 10 µM with NCI-H3255 [4]; > 10 µM with BT-483. In addition, the IC50 was > 10 µM in the series with VCAP; 4.74 µM in the series with NCI-H441; 8.33 µM in the series with NCI-H2030; > 10 µM in the series on NCI-H3255 [7]; 1.2 µM with A549; > 10 µM with SK-MEL-28. The IC50 was > 10 µM in the series with SK-MEL-5 and 0.3 µM in the series with CHP-212. Besides, the T/C is given as -12 with HMEX1906; 47 in the series on MEL-JUSO (75 mg/kg qd); 32 in the series on MEL-JUSO (150 mg/kg qd); 2 with MEL-JUSO (250 mg/kg qd); 64 in the series on HBCx-6; 82 with HBRX1286. Besides, the T/C was found to be 80 with HBCx-1, 30 in the series with HPAX1633 and 92 in the series on HBCx-14. In addition, the figures for the “area under the concentration-time curve” value (in “Pharmacokinetics in mice”; in series [6]) were ~12,500 ng/mL × h and ~22,000 ng/mL × h, respectively. Besides, the values for the maximum serum concentration (in the series “Pharmacokinetics in mice”; in series [6]) were ~2700 ng/mL and ~1700 ng/mL, respectively. The “effect on pRb and cell cycle” value in [5] is “dephosphorylation of phosphorylated Rb (pRb) and concomitant G1 cell-cycle arrest”. Also, in the series with CDK2/cyclin A, the “activity against CDK2/cyclin A” value is recorded as “far less active”.

Regarding `CC(=O)c1c(C)c2cnc(Nc3ccc(N4CCNCC4)cn3)nc2n(C2CCCC2)c1=O` [Palbociclib, reference compound], the IC50 in the series with MOLM-13 was found to be 47 ± 25 µM; in the series on REH it was 60 ± 17 µM; in the series on CAMA-1, 50 ± 24 µM; in the series on MCF-7 [8], 30 ± 18 µM.
